Experiments:
[1] = target: T1, Xanthine oxidase (from bovine milk, Sigma) (Bos taurus, UniProt P80457); test: Xanthine oxidase inhibitory activity; assay type: biochemical; details: xanthine oxidase from bovine milk 0.02 units/mL, xanthine 200 μM, 10 minutes at room temperature, absorbance at 290 nm
T1 construct: Xanthine oxidase (from bovine milk, Sigma); purchased Sigma; host or cells: bovine milk
Description: (1) Preparation of test compounds
Test compounds were dissolved in DMSO (Wako pure chemical) at 40 mM concentration and then diluted to intended concentrations with phosphate-buffered saline (PBS).
(2) Method for measurement
Xanthine oxidase (from bovine milk, Sigma) was prepared with phosphate-buffered saline (PBS) at 0.02 units/mL, and then the solution was added to 96 well plates at 50 μL/well. In addition, test compounds diluted with PBS were added at 50 μL/well. Xanthine (Wako pure chemical) at 200 μM prepared with PBS was added at 100 μL/well, and the mixture was reacted for 10 minutes at room temperature. Absorbance at 290 nm was measured using a microplate reader SpectraMax Plus 384 (Molecular device). The absorbance under a condition without xanthine is 0%, and control without test compounds is 100%. Fifty % inhibitory concentration (IC50) of test compounds was calculated (Table 17). Ex. No. in the table indicates Example number.

male CD (SD) IGS rats = test: Serum hypouricemic effect; assay type: in vivo; details: Rattus norvegicus; 1 mg/kg oral gavage, overnight fasted male rats, serum at 2 hours after administration; read-out: percent decrease in uric acid
Description: Test compounds at 1 mg/kg suspended in 0.5% methylcellulose solution were administered by oral gavage administration to overnight fasted male CD (SD) IGS rats (5-week-old, Charls River Japan). At 2 hours after administration, blood was collected under ether anesthesia from abdominal aorta, and serum was separated according to general method. Serum uric acid values were determined by use of uric acid measurement kit (Uric acid C-Test Wako: Wako pure chemical), and percent decrease in uric acid was calculated according to the formula described below. As a result, it was shown that compounds of Examples 2, 7, 10, 22, 23, 25, 37, 49, 50 and 58 have over 60% percent decrease in uric acid.
Percent decrease in uric acid (%)=(Serum uric acid values in control animals−Serum uric acid values in animals administered test compounds)×100/Serum uric acid values in control animals

T1 sequence (P80457 whole entry): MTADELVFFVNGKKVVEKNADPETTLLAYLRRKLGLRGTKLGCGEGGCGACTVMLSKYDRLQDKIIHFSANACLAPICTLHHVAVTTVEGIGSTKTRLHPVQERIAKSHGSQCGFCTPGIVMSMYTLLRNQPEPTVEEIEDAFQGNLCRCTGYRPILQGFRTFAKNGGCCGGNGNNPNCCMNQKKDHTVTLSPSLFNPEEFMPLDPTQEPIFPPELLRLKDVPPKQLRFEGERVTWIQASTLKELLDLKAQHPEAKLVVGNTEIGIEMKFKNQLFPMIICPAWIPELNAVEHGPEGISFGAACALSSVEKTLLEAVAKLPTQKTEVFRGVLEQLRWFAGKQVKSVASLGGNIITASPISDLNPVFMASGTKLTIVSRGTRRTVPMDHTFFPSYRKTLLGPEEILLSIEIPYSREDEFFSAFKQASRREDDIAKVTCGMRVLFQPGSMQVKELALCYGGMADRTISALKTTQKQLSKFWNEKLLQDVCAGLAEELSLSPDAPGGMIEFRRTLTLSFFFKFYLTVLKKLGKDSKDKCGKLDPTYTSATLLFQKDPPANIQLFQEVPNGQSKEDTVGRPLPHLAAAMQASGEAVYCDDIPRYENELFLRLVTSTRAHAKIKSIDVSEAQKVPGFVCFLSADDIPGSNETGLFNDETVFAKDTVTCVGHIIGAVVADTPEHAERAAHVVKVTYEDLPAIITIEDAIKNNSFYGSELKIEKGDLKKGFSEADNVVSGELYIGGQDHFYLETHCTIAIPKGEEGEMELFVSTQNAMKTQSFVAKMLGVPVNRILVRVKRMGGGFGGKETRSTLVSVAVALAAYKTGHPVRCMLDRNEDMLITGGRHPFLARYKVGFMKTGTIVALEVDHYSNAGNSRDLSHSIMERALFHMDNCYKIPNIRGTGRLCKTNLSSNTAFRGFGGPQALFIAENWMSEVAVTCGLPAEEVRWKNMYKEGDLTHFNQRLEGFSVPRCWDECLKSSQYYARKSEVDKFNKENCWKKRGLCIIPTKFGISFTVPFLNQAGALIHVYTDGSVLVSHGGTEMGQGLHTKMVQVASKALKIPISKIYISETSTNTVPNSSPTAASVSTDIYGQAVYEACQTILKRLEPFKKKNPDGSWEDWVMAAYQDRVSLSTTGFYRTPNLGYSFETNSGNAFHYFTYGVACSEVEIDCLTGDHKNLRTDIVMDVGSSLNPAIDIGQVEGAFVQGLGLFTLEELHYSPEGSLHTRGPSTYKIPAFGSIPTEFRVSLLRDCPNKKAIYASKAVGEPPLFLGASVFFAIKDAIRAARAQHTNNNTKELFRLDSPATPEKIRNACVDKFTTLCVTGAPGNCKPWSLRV

Row | Structure (SMILES) | IC50 [1] | inhibition in vivo at 1 mg/kg (male CD (SD) IGS rats)
1 | Cc1cccn2c(-c3ccc(C(=O)O)c(O)c3)cc(C#N)c12 [Example 19] | 3 nM | –
2 | CC(C)Oc1ccn2c(-c3ccc(C(=O)O)cc3)cc(C#N)c2c1C(F)(F)F [Example 47, 4-(1-Cyano-7-isopropoxy-8-trifluoromethylindolizine-3-yl) benzoic acid] | 2 nM | –
3 | N#Cc1cc(-c2ccc(C(=O)O)c(F)c2)n2ccccc12 [Example 33] | 30 nM | –
4 | Cc1cccn2c(-c3ccc(C(=O)O)cc3)cc(C#N)c12 [Example 4] | 7 nM | –
5 | CCc1ccc2c(C#N)cc(-c3ccc(C(=O)O)cc3)n2c1 [Example 12] | 11 nM | –
6 | N#Cc1ccn2c(-c3ccc(C(=O)O)c(O)c3)cc(C#N)c2c1 [Example 54] | 3 nM | –
7 | COc1ccn2c(-c3ccc(C(=O)O)cc3)cc(C#N)c2c1 [Example 45] | 5 nM | –
8 | N#Cc1cc(-c2ccc(C(=O)O)c(N)c2)n2ccccc12 [Example 30, 2-Amino-4-(1-cyanoindolizine-3-yl) benzoic acid] | 8 nM | –
9 | N#Cc1cc(-c2ccc(C(=O)O)cc2)n2ccc(C(F)(F)F)cc12 [Example 15] | 10 nM | –
10 | N#Cc1cc(-c2cnc(C(=O)O)c(O)c2)n2ccccc12 [Example 65] | 8 nM | –
11 | N#Cc1cc(-c2ccc(C(=O)O)cc2)n2cccc(Cl)c12 [Example 3] | 6 nM | –
12 | Cc1ccn2c(-c3cnc(C(=O)O)c(O)c3)cc(C#N)c2c1F [Example 67] | 2 nM | –
13 | COc1ccn2c(-c3ccc(C(=O)O)c(O)c3)cc(C#N)c2c1 [Example 58] | 2 nM | > 60%
14 | COc1cc2c(C#N)cc(-c3ccc(C(=O)O)cc3)n2cc1C [Example 46] | 8 nM | –
15 | Cc1ccn2c(-c3ccc(C(=O)O)c(O)c3)cc(C#N)c2c1F [Example 23] | 3 nM | > 60%
16 | CC(=O)c1ccn2c(-c3ccc(C(=O)O)c(O)c3)cc(C#N)c2c1 [Example 53] | 3 nM | –
17 | Cc1ccn2c(-c3cnc(C(=O)O)c(O)c3)cc(C#N)c2c1 [Example 66] | 2 nM | –
18 | Cc1ccn2c(-c3ccc(C(=O)O)cc3)cc(C#N)c2c1F [Example 7] | 5 nM | > 60%
19 | N#Cc1cc(-c2ccc(C(=O)O)c(O)c2)n2ccc(-c3cnco3)cc12 [Example 57] | 4 nM | –

Row | Structure (SMILES) | IC50 [1] | inhibition in vivo at 1 mg/kg (male CD (SD) IGS rats)
20 | CC(C)(C)c1ccn2c(-c3ccc(C(=O)O)cc3)cc(C#N)c2c1 [Example 43] | 2 nM | –
21 | N#Cc1cc(-c2ccc(C(=O)O)nc2)n2ccccc12 [Example 70] | 18 nM | –
22 | Cc1cc2c(C#N)cc(-c3ccc(C(=O)O)cc3)n2cc1Cl [Example 36] | 8 nM | –
23 | Cc1cc2c(C#N)cc(-c3ccc(C(=O)O)c(O)c3)n2cc1Cl [Example 49] | 2 nM | > 60%
24 | N#Cc1cc(-c2ccc(C(=O)O)s2)n2ccccc12 [Example 28] | 3 nM | –
25 | N#Cc1cc(-c2ccc(C(=O)O)cc2)n2ccccc12 [Example 1, 4-(1-Cyanoindolizine-3-yl) benzoic acid] | 7 nM | –
26 | Cc1ccn2c(-c3ccc(C(=O)O)c(F)c3)cc(C#N)c2c1F [Example 34] | 10 nM | –
27 | CCc1cccn2c(-c3ccc(C(=O)O)c(O)c3)cc(C#N)c12 [Example 24] | 6 nM | –
28 | Cc1ccn2c(-c3ccc(C(=O)O)c(O)c3)cc(C#N)c2c1Cl [Example 50] | 2 nM | > 60%
29 | N#Cc1c(F)c(-c2ccc(C(=O)O)cc2)n2ccccc12 [Example 61, 4-(1-Cyano-2-fluoroindolizine-3-yl) benzoic acid] | 68 nM | –
30 | N#Cc1cc(-c2ccc(C(=O)O)cc2)n2ccc(Br)cc12 [Example 64] | 8 nM | –
31 | CCc1cccn2c(-c3ccc(C(=O)O)cc3)cc(C#N)c12 [Example 11] | 4 nM | –
32 | Cc1ccn2c(-c3ccc(C(=O)O)cc3)cc(C#N)c2c1 [Example 2] | 4 nM | > 60%
33 | CC(C)(C)c1ccn2c(-c3ccc(C(=O)O)c(O)c3)cc(C#N)c2c1 [Example 56] | 2 nM | –
34 | N#Cc1cc(-c2ccc(C(=O)O)cc2)n2ccc3c(c12)CCCC3 [Example 9] | 3 nM | –
35 | Cc1ccn2c(-c3ccc(C(=O)O)c(O)c3)cc(C#N)c2c1C [Example 51] | 5 nM | –
36 | Cc1ccn2c(-c3ccc(C(=O)O)cc3)cc(C#N)c2c1Cl [Example 37] | 4 nM | > 60%
37 | N#Cc1cc(-c2ccc(C(=O)O)c(O)c2)n2cc(F)c(C(F)(F)F)cc12 [Example 48] | 6 nM | –
38 | N#Cc1cc(-c2ccc(C(=O)O)c(O)c2)n2ccccc12 [Example 17, 4-(1-Cyanoindolizine-3-yl)-2-hydroxybenzoic acid] | 4 nM | –

Row | Structure (SMILES) | IC50 [1] | inhibition in vivo at 1 mg/kg (male CD (SD) IGS rats)
39 | N#Cc1cc(-c2ccc(C(=O)O)c(O)c2)n2cccc(F)c12 [Example 25] | 5 nM | > 60%
40 | Cc1ccn2c(-c3ccc(C(=O)O)cc3)cc(C#N)c2c1C [Example 38] | 5 nM | –
41 | Cc1ccc2c(C#N)cc(-c3ccc(C(=O)O)c(O)c3)n2c1 [Example 20] | 5 nM | –
42 | Cc1c(Cl)ccn2c(-c3ccc(C(=O)O)c(O)c3)cc(C#N)c12 [Example 52] | 2 nM | –
43 | Cc1cc(C)c2c(C#N)cc(-c3ccc(C(=O)O)c(O)c3)n2c1 [Example 21] | 4 nM | –
44 | CN(C)c1ccn2c(-c3ccc(C(=O)O)c(O)c3)cc(C#N)c2c1 [Example 59] | 10 nM | –
45 | CC(C)(O)c1ccn2c(-c3ccc(C(=O)O)cc3)cc(C#N)c2c1 [Example 44] | 3 nM | –
46 | N#Cc1cc(-c2ccc(C(=O)O)cc2)n2cccc(F)c12 [Example 13] | 9 nM | –
47 | N#Cc1c(F)c(-c2ccc(C(=O)O)c(O)c2)n2ccccc12 [Example 62, 4-(1-Cyano-2-fluoroindolizine-3-yl)-2-hydroxybenzoic acid] | 4 nM | –
48 | CC(C)c1ccn2c(-c3ccc(C(=O)O)cc3)cc(C#N)c2c1 [Example 42] | 4 nM | –
49 | N#Cc1cc(-c2ccc(C(=O)O)c(O)c2)n2ccc(C(F)(F)F)cc12 [Example 27] | 5 nM | –
50 | CCc1ccn2c(-c3ccc(C(=O)O)cc3)cc(C#N)c2c1 [Example 10] | 8 nM | > 60%
51 | COc1cc2c(C#N)cc(-c3ccc(C(=O)O)c(O)c3)n2cc1C [Example 60] | 15 nM | –
52 | N#Cc1cc(-c2ccc(C(=O)O)cc2)n2cc(F)ccc12 [Example 14] | 18 nM | –
53 | N#Cc1cc(-c2ccc(C(=O)O)c(O)c2)n2ccc(CF)cc12 [Example 63, 4-(1-Cyano-7-fluoromethylindolizine-3-yl)-2-hydroxybenzoic acid] | 8 nM | –
54 | Cc1cc(C)c2c(C#N)cc(-c3ccc(C(=O)O)cc3)n2c1 [Example 6] | 9 nM | –
55 | COc1cccn2c(-c3ccc(C(=O)O)cc3)cc(C#N)c12 [Example 41] | 5 nM | –
56 | Cc1c(Cl)ccn2c(-c3ccc(C(=O)O)cc3)cc(C#N)c12 [Example 39] | 8 nM | –
57 | Cc1nc(-c2cc(C#N)c3ccccn23)sc1C(=O)O [Example 71] | 20 nM | –
